# Experiments:
# Sagittaria pygmaea, L. = assay: Preemergence weed control under flooded paddy conditions, SAGPY (Arrowhead (Pygmaea)); assay type: in vivo; conditions: preemergence, flooded paddy, rated 3-4 weeks after treatment
# [1] = system: Cyperus serotinus, Rottb.; assay: Preemergence weed control under flooded paddy conditions, CYPSE (Flatsedge); assay type: in vivo; conditions: preemergence, rated 3-4 weeks after treatment
# [2] = system: Echinochloa oryzoides (Ard.) Fritsch.; assay: Preemergence weed control under flooded paddy conditions, ECHORC (Watergrass (Calif.)); assay type: in vivo; conditions: preemergence, flooded paddy, rated 3-4 weeks after treatment
# [3] = system: Monochoria vaginalis, Presl.; assay: Preemergence weed control under flooded paddy conditions, MOOVA (Monochoria); assay type: in vivo; conditions: preemergence, flooded paddy, rated 3-4 weeks after treatment
# [4] = system: Oryza sativa, (L.) Tebonnet; assay: Rice tolerance to post-transplant applications under flooded paddy conditions (Example 187), ORYSAT (Rice, Tebonnet); conditions: rated 3-4 weeks after treatment
# Cyperus iria = assay: Preemergence weed control under flooded paddy conditions, CYPIR (Rice Flatsedge); assay type: in vivo; conditions: preemergence, flooded paddy, rated 3-4 weeks after treatment
# Note: meaning of each grade not given here.
Structure (SMILES),"herbicidal effect rating, SAGPY (Sagittaria pygmaea, L.; Rate 0.0320 kg/ha)","herbicidal effect rating, SAGPY (Sagittaria pygmaea, L.; Rate 0.0620 kg/ha)","herbicidal effect rating, SAGPY (Sagittaria pygmaea, L.; Rate 0.1250 kg/ha)","herbicidal effect rating, SAGPY (Sagittaria pygmaea, L.; Rate 0.2500 kg/ha)","herbicidal effect rating, CYPSE ([1]; Rate 0.0320 kg/ha)","herbicidal effect rating, CYPSE ([1]; Rate 0.0620 kg/ha)","herbicidal effect rating, CYPSE ([1]; Rate 0.1250 kg/ha)","herbicidal effect rating, CYPSE ([1]; Rate 0.2500 kg/ha)","herbicidal effect rating, ECHORC ([2]; Rate 0.0320 kg/ha)","herbicidal effect rating, ECHORC ([2]; Rate 0.0620 kg/ha)","herbicidal effect rating, ECHORC ([2]; Rate 0.1250 kg/ha)","herbicidal effect rating, ECHORC ([2]; Rate 0.2500 kg/ha)","herbicidal effect rating, MOOVA ([3]; Rate 0.0320 kg/ha)","herbicidal effect rating, MOOVA ([3]; Rate 0.0620 kg/ha)","herbicidal effect rating, MOOVA ([3]; Rate 0.1250 kg/ha)","herbicidal effect rating, MOOVA ([3]; Rate 0.2500 kg/ha)",herbicidal effect rating ORYSAT ([4]; Rate 0.0320 kg/ha),herbicidal effect rating ORYSAT ([4]; Rate 0.0620 kg/ha),herbicidal effect rating ORYSAT ([4]; Rate 0.1250 kg/ha),herbicidal effect rating ORYSAT ([4]; Rate 0.2500 kg/ha),further results
"CCCCCCC#CCCOC(=O)COc1ccc(C)cc1-c1nsc2ccc(-n3c(=O)cc(C(F)(F)F)n(C)c3=O)cc12 [Example 522, Acetic acid, {{2-{5-[3,6-dihydro-3-methyl-2,6-dioxo-4-(trifluoromethyl)-1(2H)-pyrimidinyl]-1,2-benzisothiazol-3-yl}-p-tolyl}oxy}-, 3-decynyl ester]",0.0,0.0,0.0,0.0,0.0,0.0,0.0,0.0,5.5,6.5,8.0,9.0,9.0,9.0,9.0,9.0,2.5,4.0,4.0,4.5,"herbicidal effect rating, CYPIR (Cyperus iria; Rate 0.0320 kg/ha): 0.0; herbicidal effect rating, CYPIR (Cyperus iria; Rate 0.0620 kg/ha): 0.0; herbicidal effect rating, CYPIR (Cyperus iria; Rate 0.1250 kg/ha): 0.0; herbicidal effect rating, CYPIR (Cyperus iria; Rate 0.2500 kg/ha): 2.0"
"COCCCOCCCOC(=O)COc1ccc(C)cc1-c1nsc2ccc(-n3c(=O)cc(C(F)(F)F)n(C)c3=O)cc12 [Example 523, Acetic acid, {{2-{5-[3,6-dihydro-3-methyl-2,6-dioxo-4-(trifluoromethyl)-1(2H)-pyrimidinyl]-1,2-benzisothiazol-3-yl}-p-tolyl}oxy}-, 3-(3-methoxypropoxy)propyl ester]",0.0,0.0,0.0,0.0,0.0,0.0,2.0,9.0,6.0,8.0,8.0,9.0,8.0,9.0,9.0,9.0,4.5,4.5,5.5,7.0,"herbicidal effect rating, CYPIR (Cyperus iria; Rate 0.0320 kg/ha): 0.0; herbicidal effect rating, CYPIR (Cyperus iria; Rate 0.0620 kg/ha): 2.0; herbicidal effect rating, CYPIR (Cyperus iria; Rate 0.1250 kg/ha): 4.0; herbicidal effect rating, CYPIR (Cyperus iria; Rate 0.2500 kg/ha): 8.0"
"Cc1ccc(OCC(=O)OCC(C)(C)Cc2ccccc2)c(-c2nsc3ccc(-n4c(=O)cc(C(F)(F)F)n(C)c4=O)cc23)c1 [Example 527, Acetic acid, {{2-{5-[3,6-dihydro-3-methyl-2,6-dioxo-4-(trifluoromethyl)-1(2H)-pyrimidinyl)-1,2-benzisothiazol-3-yl}-p-tolyl}oxy}-, 2,2-dimethyl-3-phenylpropyl ester]",0.0,0.0,0.0,0.0,0.0,0.0,0.0,0.0,3.0,8.0,9.0,9.0,9.0,9.0,9.0,9.0,2.0,2.5,2.5,4.0,"herbicidal effect rating, CYPIR (Cyperus iria; Rate 0.0320 kg/ha): 2.0; herbicidal effect rating, CYPIR (Cyperus iria; Rate 0.0620 kg/ha): 2.0; herbicidal effect rating, CYPIR (Cyperus iria; Rate 0.1250 kg/ha): 4.0; herbicidal effect rating, CYPIR (Cyperus iria; Rate 0.2500 kg/ha): 4.0"
"CC=CCOC(=O)C(C)(C)Oc1ccc(C)cc1-c1nsc2ccc(-n3c(=O)cc(C(F)(F)F)n(C)c3=O)cc12 [Example 529, Propionic acid, 2-{{2-{5-[3,6-dihydro-3-methyl-2,6-dioxo-4-(trifluoromethyl)-1(2H)-pyrimidinyl]-1,2-benzisothiazol-3-yl}-p-tolyl}oxy}-2-methyl-, 2-butenyl ester]",9.0,9.0,9.0,9.0,0.0,0.0,0.0,0.0,7.0,9.0,9.0,9.0,3.0,3.0,3.0,0.0,0.0,0.0,3.0,9.0,"herbicidal effect rating, CYPIR (Cyperus iria; Rate 0.0320 kg/ha): 3.0; herbicidal effect rating, CYPIR (Cyperus iria; Rate 0.0620 kg/ha): 3.0; herbicidal effect rating, CYPIR (Cyperus iria; Rate 0.1250 kg/ha): 3.0; herbicidal effect rating, CYPIR (Cyperus iria; Rate 0.2500 kg/ha): 0.0"
"C=CCOC(=O)C(C)(C)Oc1ccc(C)cc1-c1nsc2ccc(-n3c(=O)cc(C(F)(F)F)n(C)c3=O)cc12 [Example 530, Propionic acid, 2-{{2-{5-[3,6-dihydro-3-methyl-2,6-dioxo-4-(trifluoromethyl)-1(2H)-pyrimidinyl]-1,2-benzisothiazol-3-yl}-p-tolyl}oxy}-2-methyl-, allyl ester]",0.0,0.0,3.0,9.0,0.0,0.0,0.0,0.0,9.0,9.0,9.0,9.0,9.0,9.0,9.0,9.0,0.0,0.0,3.0,9.0,"herbicidal effect rating, CYPIR (Cyperus iria; Rate 0.0320 kg/ha): 0.0; herbicidal effect rating, CYPIR (Cyperus iria; Rate 0.0620 kg/ha): 9.0; herbicidal effect rating, CYPIR (Cyperus iria; Rate 0.1250 kg/ha): 9.0; herbicidal effect rating, CYPIR (Cyperus iria; Rate 0.2500 kg/ha): 9.0"

# From patent EP0908457B1, “3-(1,2-benzisothiazol- and isoxazol-5-Y1)-2,4(1H,3H)-pyrimidinedione or thione and 3-(1,2-benzisothiazol- and isoxazol-5-y1)-4(3H)-pyrimidinone or thione herbicidal agents” (BASF AKTIENGESELLSCHAFT, priority 1997, dated 1999)
